Test results published in patent US8044098B2, “Use of hydroxybenzoic acids and their esters and analogues for preventing or treating virus infection” (Shenghua Guangzhou Pharmaceutical Science & Technology Co., …, priority 2005, dated 2011).

Columns and labels:
HPV 16/18 = assay: Drug screening by quantitative fluorescent PCR analysis of HPV 16/18 in condyloma acuminata homogenate; parameters: species or system human papillomavirus (HPV)
[1] = tested on: secretion of HBsAg by 2.2.15 cells; assay: Inhibition of secretion of HBsAg by Hepatitis B 2.2.15 cell line; type: cell-based, HBV; settings: 1 μmol/ml
Description: (§1) Hepatitis B 2.2.15 cell line was transfected by HBV DNA (purchased from Institute of Biochemistry and Cell Biology of Shanghai Institute for Biological Sciences or the National Center for Drug Screening) and used as the cell model for screening anti-HBV drug compounds (See Chinese Journal Of Integrated Traditional and Western Medicine on Liver Diseases, 2004, 14(3): 158). The cell culture medium DMEM (GIBCO Company), bovine serum (Hangzhou Siji Qing Biochemical Manufacturer), G418 (GIBCO Company), 3-(4,5-dimethylthiazol-2-yl)-2,5-diphenyltetrazoliumbromide (Sigma), HBsAg and HBeAg diagnostic kit (Shanghai Kehua Bio-engineering Co., Ltd).
(§2) The test compounds listed in Table 3 below were dissolved in a mixture containing 20 ml 1,2-propylene glycol and 15 ml Tween-80 and diluted with sterile saline water to 2 μmol/ml of the test compound. Then it was mixed with the cell culture medium at equal volume to obtain a solution containing 1 μmol/ml of the tested compound. Cells at the concentration of 1×10^5 cells per milliliter were inoculated to a 24-well plate at 1 ml/well. Supernatant from the cell culture mixture was collected three days later for testing.

[2] = tested on: secretion of HBeAg by 2.2.15 cells; assay: Inhibition of secretion of HBeAg by Hepatitis B 2.2.15 cell line; type: cell-based, HBV; settings: 1 μmol/ml
Description: as §1, §2

HPV 6/11 = assay: Drug screening by quantitative fluorescent PCR analysis of HPV 6/11 in condyloma acuminata homogenate; parameters: species or system human papillomavirus (HPV)
condyloma acuminata = assay: Clinical use in treating condyloma acuminata; type: in vivo, human
Description: Soft hyperplasia with nipple or cauliflower shaped or other shaped warts were found around the skin of the cunnus or anus. The result from 5% acetate acid white test was positive.
Patients selected for the clinical observation must meet the above standards. Plus the diameter of their skin lesions should equal to or be less than 1 cm. […] Patients who had vaginal yeast, trichomonas, bacteria infection or other complications, chronic diseases, serious liver or kidney diseases or women in pregnancy or lactation were not selected. Treatments to women would not be conducted in their menstrual periods.
50 qualified patients were selected and randomly divided into five groups to be tested with p-hydroxybenzoic acid, gallic acid, ethyl p-hydroxybenzoate, propyl gallate and recombinant human interferon α-2β gel, respectively. The samples of p-hydroxybenzoic acid, gallic acid, ethyl p-hydroxybenzoate and propyl gallate were prepared as described in Example 1. The patients were treated with the test sample to the affected areas three times a day, in the morning, at noon and night. The samples were applied to cover the warts and the patients were required to leave the treated areas exposed and not to move for 20 minutes.
Observation time: 8 days. Patients not cured after 8 days would continue to use the test samples for another 12 weeks, and their prognosis was followed during the 12-week period.
Observed items: the location, shape, size and number of warts were carefully observed and recorded before the treatment.
“Recovered”: all skin lesions had disappeared;
“Obvious Effect”: more than 70% of the skin lesions had disappeared;
“Improved”: more than 30% of the skin lesions had disappeared;
“Not Effective”: less than 30% of the skin lesions had disappeared or the original skin lesions didn't change or even enlarged.

[3] = type: physicochemical
Protocol: 20 ml 1,2-propylene glycol, 15 ml Tween-80 and 5 ml azone were mixed together and sterile distilled water was added to bring the volume to 100 ml. The pH value of the solution was adjusted to pH 6.8 with NaOH or HCl to obtain a micro emulsion. 10 g propyl gallate and 10 g gallic acid were dissolved in the micro emulsion, respectively, and mixed well. 10 ml of each micro emulsion was added to a capped transparent glass tube. Both solutions were colorless. The absorbance of the two solutions at 400˜500 nm was measured with spectrophotometry and their absorbance was under 0.15. […] Measured by spectrophotometry again, the absorbance of the gallic acid solution was 1.2 and that of the propyl gallate solution was 0.4.

cervical erosion = assay: Clinical use of propyl gallate in treating cervical erosion; type: in vivo, human; settings: for total effectiveness rate: recovered or improved
Protocol: 4 g propyl gallate was mixed with 40 ml 1,2-propylene glycol and heated to let the ingredients to dissolve. Sterile distilled water was added to the mixture to reach a final volume of 100 ml. 28 married female patients of 22-50 years old were selected for the test. […] The patients were also tested for the absence of vaginal yeast infection or trichomoniasis or sexually transmitted diseases. The patients were randomly divided into two groups of 14 patients each. One group was treated with propyl gallate micro emulsion, the other group with interferon-α suppository (made by Wuhan Tian'ao Pharmaceutical Co.). The treatment was started three days after a patient's last menstrual period. The propyl gallate micro emulsion was applied to the mucosa surfaces with cervical erosion every other day for 30 days. Out of the group treated with propyl gallate, 7 patients had the medicine applied to them by medical professionals at a hospital, the other 7 patients applied the medicine by themselves at home. On the other hand, an interferon-α suppository was used by each patient in the control group once a day before sleep for 30 days. “Recovered”: the cervical skin became smooth, cervical erosion had disappeared; […] The effectiveness of treatment was calculated based on the number of patients that were “recovered” or “improved”. Among patients of the propyl gallate group who were treated at the hospital, the “recovered” rate was about 81%, the “improved” rate was about 15%, and the total effectiveness rate was about 96%. Among patients of the propyl gallate group who were treated at home, the “recovered” rate was about 32%, the “improved” rate was about 55%, and the total effectiveness rate was about 87%. Among patients treated with interferon-α suppository, the “recovered” rate was about 22%, the “improved” rate was about 57%, and the total effectiveness rate was about 79%.

[4] = 24 hours after adding the test compound
[5] = 2.2.15 cells, supernatant collected three days later
[6] = patients treated at home (7), every other day for 30 days

CCCOC(=O)c1cc(O)c(O)c(O)c1 [Propyl gallate]
HPV 16/18 Virus (copies/ml) (HPV 16/18; 50 μl 10% micro emulsion + 50 μl HPV sample homogenate, 37° C., 24 hours, saline control 1.40 × 10^5): 0 copies/ml
HPV 16/18 detected by FQ-PCR (in words) (HPV 16/18; [4]): no HPV 6/11 or HPV 16/18 was detected
effect on the secretion of HBsAg by the 2.2.15 cells (in words) [1]: had inhibition effect
inhibition of HBsAg secretion compared with gallic acid and 3,4-dihydroxybenzoic acid [1]: more effective
HBsAg Inhibition rate [1, 5]: 18.83%
effect on the secretion of HBeAg by the 2.2.15 cells (in words) [2]: had inhibition effect
inhibition of HBeAg secretion compared with gallic acid and 3,4-dihydroxybenzoic acid [2]: more effective
HBeAg Inhibition Rate [2, 5]: 12.04%
HPV 6/11 Virus (copies/ml) (HPV 6/11; 50 μl 10% micro emulsion + 50 μl HPV sample homogenate, 37° C., 24 hours, saline control 1.45 × 10^6): 0 copies/ml
HPV 6/11 detected by FQ-PCR (in words) (HPV 6/11; [4]): no HPV 6/11 or HPV 16/18 was detected
treatment effect compared to recombinant human interferon α-2β gel (condyloma acuminata; condyloma acuminata patients, 10% micro emulsion): more apparent treatment effect
Recovered, 1-4 days (condyloma acuminata; number of patients (50 patients in five groups), 10% micro emulsion on affected areas three times a day, all skin lesions disappeared): 7
Recovered, 5-8 days (condyloma acuminata; number of patients, 10% micro emulsion three times a day, all skin lesions disappeared): 1
Obvious Effect, 1-4 days (condyloma acuminata; number of patients, more than 70% of the skin lesions disappeared): 2
colour of solution, initial ([3]; micro emulsion pH 6.8, freshly prepared): colorless
absorbance after 30 days ([3]; micro emulsion pH 6.8, kept at room temperature for 30 days, 400˜500 nm): 0.4
colour of solution after 30 days ([3]; micro emulsion pH 6.8, room temperature for 30 days): remained colorless
“improved” rate (cervical erosion; [6]): about 55%
“recovered” rate (cervical erosion; [6]): about 32%
total effectiveness rate (cervical erosion; patients treated at home (7)): about 87%
“recovered” rate (cervical erosion; patients treated at the hospital (7), 4% micro emulsion every other day for 30 days): about 81%
“improved” rate (cervical erosion; patients treated at the hospital (7), every other day for 30 days): about 15%
total effectiveness rate (cervical erosion; patients treated at the hospital (7)): about 96%
effectiveness compared with interferon-α suppository (cervical erosion; patients treated at the hospital, P<0.05): significantly better
